Reference: US12311011B2, “Des-acyl ghrelin and analogs as cancer therapies” (Cornell University, priority 2018, dated 2025)
Where no end group is shown, it is not given here. The star is where a group is joined. Octanoyl = CCCCCCCC(=O)*

Assays:
[1] = tested on: MDA-MB-231 cells; assay: 3D/2D cell growth assay (cell number, Hoechst); type: cell-based, human; conditions: for cell growth in the presence of serum: 0.05-5 μM MK2206, 0.1-10 μM BKM120; for forskolin-stimulated cell growth: 10 μM forskolin, 3D
[2] = tested on: MDA-MB-468 cells; assay: 3D/2D cell growth assay (cell number, Hoechst); type: cell-based, human; conditions: for cell growth in the presence of serum: 0.05-5 μM MK2206, 0.1-10 μM BKM120; for growth of MDA-MB-468 cells: 60 nM KT5720, 1.4 μM SQ22536, 15 μM cAMPs-RP; for forskolin-stimulated cell growth: 10 μM forskolin
Procedure: (§1) Human BC Cells. Human breast cancer cell lines, MCF7, T47D, ZR75, MDA-MB-231, MDA-MB-468, SKBR3, Hs578T and HEK293T, DU4475 and MDA-MB-157 were purchased from ATCC, USA. Human 4-OH tamoxifen resistant breast cancer cells (LCC2), RKO, RKO-T29, RKO-A19, HCT116, HCT116-HWT, HCT116-HMUT were cultured using methods were performed as described previously (Yun et al., Science 325(5947):1555-9 (2009)). MCF7, MDA-MB-231, MDA-MB-468, MDA-MB-157, Hs578T, HEK293T were grown in DMEM (Invitrogen), supplemented with 10% fetal calf serum (FCS) (Invitrogen), 100U/ml penicillin/streptomycin and 1% sodium pyruvate. ZR75, T47D, SKBR3 and DU4475 were grown in RPMI, supplemented with 10% FCS, 100 U/ml penicillin/streptomycin and 2 mM L-Glutamine (ThermoFisher Scientific). LCC2 were grown in phenol red-free DMEM, supplemented with 10% charcoal stripped serum (CCS; ThermoFisher Scientific), 100 U/ml penicillin/streptomycin and 1% sodium pyruvate. All cell lines were grown at 37° C. with 5% CO2 in a humidified environment. Mycoplasma detection of all cell lines were tested and negative results were observed.
(§2) Cell Growth and Proliferation Assays. 3D culture of a panel of breast cancer and colon cancer cells were seeded at a density of 3,000 cells per well in media containing 30% growth-factor-reduced matrigel or 5 mg/ml Collagen in optical-bottom 96-well plates. Patient-derived breast tumors were first dissociated into single cell suspensions and seeded at a density of 32,000 cells per well in media containing 30% matrigel. […] At the end of the experimental time point, cells were fixed in 100% methanol. The total number of cells, or the number of dead or proliferating cells was assessed using Hoechst, EarlyTox Dead Assay Kit (Molecular Devices), or Click-IT EdU Kit (ThermoFisher Scientific), respectively, and analyzed according to the manufacturer's protocols. Cells were then imaged with >95% well coverage (magnification of 10× with 3×3 tiled images) per field using confocal microscopy. The number of nuclei/Ethidium Homodimer-III+/EdU+ cells were counted using Imaris software (Bitplane).

[3] = tested on: MCF7 cells; assay: 3D/2D cell growth assay (cell number, Hoechst); type: cell-based, human; conditions: for serum-stimulated growth (cell number): 60 nM KT5720, 1.4 μM SQ22536, 15 μM cAMPs-RP
Procedure: as §1, §2

[4] = tested on: ERK activity in EKAR-transfected MCF7 cells; assay: ERK activity assay (EKAR FRET reporter); type: cell-based, human; conditions: 10% serum; 3D; time-lapse confocal
Procedure: ERK Activity Assay: The EKAR FRET-based system was used to monitor ERK activity. Briefly, breast cancer cells were co-transfected with pPBJ-puro-FRET3-EKAR-nls and the pCMV-hyPBase transposase vector, and stably transfected cells selected using FACS for EYFP and ECFP-positive cells. Cells were then cultured in 3D and serum-starved overnight. Prior live cell time-lapse confocal imaging, medium was replaced with 100 pM unacylated ghrelin and 10% serum. Images were acquired following FRET and analyzed using Imaris software. Data normalized to ECFP signal.

[5] = tested on: MCF7, MDA-MB-468 and MDA-MB-231 cells; assay: Cy3-tagged UAG binding assay in 3D cultures; parameters: species or system human; conditions: 1 μM Cy3-tagged UAG with 10% serum; live confocal imaging
Procedure: Binding Assays. Cy3-tagged UAG (Pepmic Co, LtD) binding assays were performed in 3D cultures of breast cancer cells. MCF7, […] and MDA-MB231 cells were seeded at a density of 3,000 cells per well in Matrigel in optical-bottom 96-well plates. Cells were serum-starved overnight. Hoechst nuclear stain was added prior to the live cell imaging. 1 μM Cy3-tagged UAG with 10% serum was then added and time-lapse confocal imaging was performed to examine the localization of peptide binding.

[6] = tested on: panel of breast cancer cell lines; assay: 3D cell growth assay in a panel of breast cancer cell lines; type: cell-based, human; conditions: 100 pM
Procedure: as §1, with “All cell lines were grown at 37° C. with 5% CO2 in a humidified environment. Mycoplasma detection of all cell lines were tested and negative results were observed.” left out
Cell Growth and Proliferation Assays. […] The total number of cells, or the number of dead or proliferating cells was assessed using Hoechst, EarlyTox Dead Assay Kit (Molecular Devices), or Click-IT EdU Kit (ThermoFisher Scientific), respectively, and analyzed according to the manufacturer's protocols. […] The number of nuclei/Ethidium Homodimer-III+/EdU+ cells were counted using Imaris software (Bitplane).

[7] = tested on: J110 allografts; assay: Syngeneic allograft in FVB/N mice; type: in vivo, mouse; conditions: AZP531 200 μg/kg s.c.; 7 days; FVB mice
Procedure: (§3) Animal Experimental Model. All animal experiments were performed in Monash Animal Research Platform at Hudson Institute for Medical Research and Research Animal Resource Center at Weill Cornell Medicine. Experimental procedures were in accordance with guidelines for Animal Care and Use, approved by Monash University Animal Ethics Committee (MMCA2014/20) and Weill Cornell Medicine IACUC Protocol (REQ00016929). Athymic Balb/c nude, FVB/N (Animal Resources Centre, Australia) and NSG (NOD Scid gamma; NOD.CgPrkdcscidIl2rgtmlwjl/SzJ) mice (The Jackson laboratory and Monash Breeding Colony platform) were used for this study. All mouse procedures were performed with 6-8 weeks old female mice and treatments administered via subcutaneous injection. See additional details included herein for specific in vivo experimental procedures.
A syngeneic breast cancer mouse model was created in female FVB/N mice. 1.25×10^5 J110 cells were injected into the mammary fat pad of 6-week old FVB (Immunocompetent) mice. […]
Measurement of Apoptotic Cells from Xenograft/Allograft Studies. MCF7, ZR75 and J110 tumor sections post treatment with 100 μg/kg or 200 μg/kg of unacylated ghrelin were assessed using Hoechst nuclear stain and confocal microscopy. Quantification of cells with apoptotic nuclei was performed using Image J.

[8] = Allas et al. 2016; cited from earlier work
[9] = tested on: MDA-MB-468 xenografts; assay: Xenograft in NSG mice; type: in vivo, mouse; conditions: 200 μg/kg s.c., 28 days
Procedure: as §3
Additional studies were also performed in NSG mice. MDA-MB-468 (1×10^6) were injected into the mammary fat pad of 6-week old NSG (immunodeficient) mice. Once the tumor reached a volume of 150 mm^3, the mice were randomized to receive saline (vehicle control) or AZP531 via subcutaneous injection. After 28 days of treatment, the mice were humanely sacrificed by cervical dislocation.

[10] = tested on: patient-derived breast cancer cells; assay: 3D growth of patient-derived breast cancer cells; type: cell-based, human
From the text: Human BC Tissues and Preclinical Patient Derived Xenograft Models. Patient-derived breast tumors (PDX, (Zhang, et al., Cancer Res 15:4885-97 (2013)) and estrogen receptor positive (ER^+) breast tumors were used under IRB-approved protocols (WCM 1410015560 and 1603017108). All patients provided written informed consent. Cells were isolated and maintained in DMEM, supplemented with 10% fetal calf serum (FCS), 100U/ml penicillin/streptomycin and 1% sodium pyruvate (ThermoFisher Scientific). Cells were grown at 37° C. in a humidified atmosphere with 5% CO2. See Method Details for cell growth and proliferation work specific procedures.
as §2

**Q.** For `Nc1cc(C(F)(F)F)c(-c2cc(N3CCOCC3)nc(N3CCOCC3)n2)cn1` [BKM120], which “cell growth in the presence of serum” value [1] is on record?
**A.** inhibited

**Q.** What about the “cell growth in the presence of serum” value ([2]; serum) of the same compound?
**A.** inhibited

**Q.** With `CCCCCCOC(=O)[C@]1(O)C[C@@H]2O[C@@]1(C)n1c3ccccc3c3c4c(c5c6ccccc6n2c5c31)C(=O)NC4` [KT5720] as the compound, how does the “growth of MDA-MB-468 cells” value [2] read?
**A.** suppress the growth

**Q.** And the “serum-stimulated growth (cell number)” value ([3]; serum)?
**A.** significant reduction in cell number

**Q.** For `NC1(c2ccc(-c3nc4ccn5c(=O)[nH]nc5c4cc3-c3ccccc3)cc2)CCC1` [MK2206], which forskolin-stimulated cell growth [1] is on record?
**A.** inhibit

**Q.** And the “cell growth in the presence of serum” value [1]?
**A.** inhibited

**Q.** And the forskolin-stimulated cell growth ([2]; 3D)?
**A.** inhibit

**Q.** What about the “cell growth in the presence of serum” value ([2]; serum) of the same compound?
**A.** inhibited

**Q.** What does the source list for `Nc1ncnc2c1ncn2C1CCCO1` (stereo not shown) [SQ22536]?
**A.** growth of MDA-MB-468 cells [2]: suppress the growth; serum-stimulated growth (cell number) ([3]; serum): significant reduction in cell number

**Q.** What does the source list for `N#CC(=C(/N)Sc1ccccc1N)/C(C#N)=C(\N)Sc1ccccc1N` [U0126]?
**A.** forskolin-stimulated cell growth [1]: significant reduction; serum-stimulated EKAR (ERK) activity [4]: inhibited; forskolin-stimulated cell growth ([2]; 3D): significant reduction; forskolin-stimulated cell growth ([3]; 10 μM forskolin, 3D): significant reduction

**Q.** With `Nc1ncnc2c1ncn2[C@@H]1O[C@@H]2CO[P@@](O)(=S)O[C@H]2[C@H]1O` [cAMPS-RP] as the compound, how does the “growth of MDA-MB-468 cells” value [2] read?
**A.** suppress the growth

**Q.** What about the “serum-stimulated growth (cell number)” value ([3]; serum) of the same compound?
**A.** significant reduction in cell number

**Q.** With “Cy3-labeled unacylated ghrelin: Cy3-tagged UAG (Pepmic Co, LtD) used for binding assays (GSSFLSPEHQRVQQRKESKKPPAKLQP; also: Cy3 label, position not given here; UniProt Q9UBU3 24-50, looked up)” as the compound, how does the “binding to responsive and non-responsive cells” value [5] read?
**A.** Binding

**Q.** Which “breast cancer cell growth in serum-stimulated conditions (FIG. 15G)” value [6] does the source give for “GSS(n-octanoyl)FLSPEHQRVQQRKESKKPPAKLQPR (GSS(Octanoyl)FLSPEHQRVQQRKESKKPPAKLQPR) [acyl ghrelin]” here?
**A.** inhibited breast cancer cell growth

**Q.** With “SPEHQRVQ (also: cyclic, ring type not given here) [AZP531]” as the compound, how does the “tumor cell growth (tumor volume)” value [7] read?
**A.** suppression of cell growth

**Q.** What about the “pharmacokinetic properties relative to unacylated ghrelin” value [8] of the same compound?
**A.** better pharmacokinetic properties than unacylated ghrelin

**Q.** And the safety profile [8]?
**A.** established safety profile

**Q.** What about the “potency compared to doxorubicin” value ([2]; 3D, serum) of the same compound?
**A.** greater potency than doxorubicin

**Q.** And the “serum-stimulated growth of cells” value ([2]; 3D, serum, dose-response)?
**A.** dose-dependent inhibition

**Q.** And the “extent of cell number reduction” value ([2]; 3D, serum, unlike doxorubicin)?
**A.** did not reduce cell number beyond that which was stimulated by serum

**Q.** What about the “potency compared to doxorubicin” value ([3]; 3D, serum) of the same compound?
**A.** greater potency than doxorubicin

**Q.** What about the “serum-stimulated growth of cells” value ([3]; 3D, serum, dose-response) of the same compound?
**A.** dose-dependent inhibition

**Q.** What about the “extent of cell number reduction” value ([3]; 3D, serum, unlike doxorubicin) of the same compound?
**A.** did not reduce cell number beyond that which was stimulated by serum

**Q.** What about the “tumor cell growth (tumor volume)” value [9] of the same compound?
**A.** suppression of cell growth

**Q.** What about the “serum-stimulated growth of patient-derived TNBC cells” value ([10]; dose-response) of the same compound?
**A.** dose-dependent inhibition

**Q.** And the “potency compared to doxorubicin” value ([10]; patient-derived TNBC cells, serum)?
**A.** greater potency than doxorubicin

**Q.** And the “extent of cell number reduction” value ([10]; patient-derived TNBC cells, serum, unlike doxorubicin)?
**A.** did not reduce cell number beyond that which was stimulated by serum
